Data on 36 molecules can be found in patent publication US12037354B2, “Cyclic pantetheine derivatives and uses thereof” (VectivBio Comet AG, priority 2018, dated 2024).

The assay has as its system HepG2 cells. Kind of assay: Glucose uptake Glo Assay, Example 821. Type of assay: cell-based. The following applies: for activation at 10 µM / activation at 50 µM: Homo sapiens, 20 min, read-out: % increase in Glucose Uptake. The protocol:
The effect of compounds from the present disclosure on glucose uptake was determined in HepG2 cells (ATCC, HB-8065) using the glucose uptake Glo Assay Kit (Promega, 11343 according to manufacturer instructions. HepG2 cells were cultured in complete DMEM-glucose media (Gibco) supplemented with 10% FBS (37° C. incubator with 5% CO2) and seeded in 96-well plates at 30,000 cells/well. After removing the complete media, 100 μL/well of serum-free, high-glucose DMEM media were added to the wells and incubated overnight (37° C. incubator with 5% CO2). Media was then replaced with 100 μl/well DPBS containing 0.6°/o BSA and starved for 1 hour. Next, DPBS was removed and 45 μl/well of insulin (100 nM) or compounds (10 μM-50 μM) were added to the wells and incubated for 10 minutes (37° C. incubator with 5% CO2). Insulin and compounds were prepared in DPBS with 0.6% BSA with a final DMSO concentration of 0.1%. Next, 5 μl of 2DG (10 mM) in DPBS were added per well and allowed to incubate for 20 minutes followed by addition of 25 μl stop buffer. 37.5 μl of the mixture were then transferred to a new plate and 12.5 μl of Neutralization buffer added to the wells. After, 50 μl of 2DG6P detection Reagent were added and incubated for 0.5-1 hour at room temperature. Luminescence was measured with 0.3-1 second integration on a luminometer.

Each structure is given as a SMILES string. Read-outs that look alike come from different tables or passages of the source.

For `CC1(C)COP(=O)(O)O[C@H]1C(=O)NCCC(=O)NCCSC(=O)CCC(=O)O` [Compound 1], the activation at 10 µM (10 uM (Example 968)) is at least 30%. `CC(=O)SCCNC(=O)CCNC(=O)[C@@H]1OP(=O)(O)OCC1(C)C` [Compound 2]: the activation at 10 µM (10 uM (Example 970)) was at least 10%. Consider `CC1(C)COP(=O)(O)O[C@H]1C(=O)NCCC(=O)NCCSC(=O)CC(=O)CCC(=O)O` [Compound 3], for which the activation at 10 µM (10 uM) is at least 10%. Further, the “% increase in Glucose Uptake” value (concentration tested 10 uM) is at least 10%. For `CC1(C)COP(=O)(O)O[C@H]1C(=O)NCCC(=O)NCCSC(=O)/C=C/C(=O)O` [Compound 20], the activation at 50 µM (50 uM) was at least 30%. Also, where the note is “concentration tested 50 uM”, the “% increase in Glucose Uptake” value is recorded as at least 30%. For `C[C@@H](O)CC(=O)SCCNC(=O)CCNC(=O)[C@@H]1OP(=O)(O)OCC1(C)C` [Compound 39], in that order: at least 10% and at least 10%. Consider `CC(CC(=O)SCCNC(=O)CCNC(=O)[C@@H]1OP(=O)(O)OCC1(C)C)O[C@H](CC(=O)[O-])C[N+](C)(C)C` (stereo partly drawn) [Compound 47], for which the activation at 50 µM (50 uM (Example 966)) was at least 10%.

In the case of `COC(=O)CC(SCCNC(=O)CCNC(=O)[C@@H]1OP(=O)(O)OCC1(C)C)C(=O)OCC[N+](C)(C)C` (stereo partly drawn) [Compound 57], where the note is “50 uM (Example 971)”, the activation at 50 µM was at least 20%. `COC(=O)[C@H](C)NP1(=O)OCC(C)(C)[C@H](C(=O)NCCC(=O)NCCSC(=O)CCC(=O)O)O1` (stereo partly drawn) [Compound 63]: the activation at 50 µM (50 uM (Example 967)) is at least 30%. For `COP1(=O)OCC(C)(C)[C@H](C(=O)NCCC(=O)NCCSC(=O)CC(=O)/C=C/C(=O)O)O1` (stereo partly drawn) [Compound 117], the activation at 10 µM (10 uM (Example 970)) was at least 30%.

For the molecule `C/C=C/C(=O)SCCNC(=O)CCNC(=O)[C@@H]1OP(=O)(OC)OCC1(C)C` (stereo partly drawn) [Compound 141], where the note is “50 uM (Example 969)”, the activation at 50 µM is at least 30%. `C/C=C/C(=O)SCCNC(=O)CCNC(=O)[C@@H]1OP(=O)(N[C@@H](C)C(=O)OC)OCC1(C)C` (stereo partly drawn) [Compound 144]: where the note is “50 uM (Example 969)”, the activation at 50 µM is at least 30%. With `C/C=C/C(=O)SCCNC(=O)CCNC(=O)[C@@H]1OP(=O)(N[C@@H](C)C(=O)O)OCC1(C)C` (stereo partly drawn) [Compound 145], the activation at 10 µM (10 uM (Example 970)) is at least 30%.

Take `COC(=O)[C@H](C)NP1(=O)OCC(C)(C)[C@H](C(=O)NCCC(=O)NCCSC(=O)CC(C)=O)O1` (stereo partly drawn) [Compound 157]: the activation at 50 µM (50 uM (Example 971)) was at least 20%. Take `CCOP1(=O)OCC(C)(C)[C@H](C(=O)NCCC(=O)NCCSC(=O)CC(=O)CC(=O)CCC(=O)O)O1` (stereo partly drawn) [Compound 183]: the activation at 10 µM (10 uM (Example 970)) was at least 30%.

Consider `COC(=O)[C@H](C)NP1(=O)OCC(C)(C)[C@H](C(=O)NCCC(=O)NCCSC(=O)CC(=O)CC(=O)CCC(=O)O)O1` (stereo partly drawn) [Compound 185], for which the activation at 50 µM (50 uM (Example 970)) is at least 30%. Turning to `CCOC(=O)CCC(=O)CC(=O)CC(=O)SCCNC(=O)CCNC(=O)[C@@H]1OP(=O)(OC)OCC1(C)C` (stereo partly drawn) [Compound 211], under “50 uM (Example 969)”, the activation at 50 µM was at least 30%. For the molecule `CCOC(=O)CCC(=O)CC(=O)CC(=O)SCCNC(=O)CCNC(=O)[C@@H]1OP(=O)(N[C@@H](C)C(=O)OC)OCC1(C)C` (stereo partly drawn) [Compound 213], the activation at 50 µM (50 uM (Example 970)) is at least 30%. `CCOC(=O)CCC(=O)CC(=O)CC(=O)SCCNC(=O)CCNC(=O)[C@@H]1OP(=O)(OCC[N+](C)(C)C)OCC1(C)C` (stereo partly drawn) [Compound 214]: the activation at 10 µM (10 uM (Example 972)) was at least 20%.

For the molecule `COC(=O)CC(SCCNC(=O)CCNC(=O)[C@@H]1OP(=O)(N[C@@H](C)C(=O)OC)OCC1(C)C)C(=O)OC` (stereo partly drawn) [Compound 370], the activation at 50 µM (50 uM (Example 969)) is at least 30%.

As for `COC(=O)CC(SCCNC(=O)CCNC(=O)[C@@H]1OP(=O)(OCC[N+](C)(C)C)OCC1(C)C)C(=O)OC` (stereo partly drawn) [Compound 371], the activation at 10 µM (10 uM (Example 969)) was at least 30%. As to `COC(=O)C(CC(=O)O)SCCNC(=O)CCNC(=O)[C@@H]1OP(=O)(OC)OCC1(C)C` (stereo partly drawn) [Compound 382], where the note is “50 uM (Example 970)”, the activation at 50 µM is at least 30%. Consider `COC(=O)C(CC(=O)OCC[N+](C)(C)C)SCCNC(=O)CCNC(=O)[C@@H]1OP(=O)(Oc2ccccc2)OCC1(C)C` (stereo partly drawn) [Compound 393], for which the activation at 10 µM (10 uM (Example 970)) is at least 30%.

Take `COP1(=O)OCC(C)(C)[C@H](C(=O)NCCC(=O)NCCSC(CC(=O)OCC[N+](C)(C)C)C(=O)O)O1` (stereo partly drawn) [Compound 397]: the activation at 10 µM (10 uM (Example 969)) is at least 20%. In the case of `CCOC(=O)CC(SCCNC(=O)CCNC(=O)[C@@H]1OP(=O)(OC)OCC1(C)C)C(=O)OCC[N+](C)(C)C` (stereo partly drawn) [Compound 410], the activation at 50 µM (50 uM (Example 969)) was at least 30%.

As for `CC1(C)COC(=O)O[C@H]1C(=O)NCCC(=O)NCCSC(=O)CC(=O)CCC(=O)OCC[N+](C)(C)C` [Compound 460], the activation at 50 µM (50 uM (Example 969)) was at least 30%. With `C[C@@H](O)CC(=O)SCCNC(=O)CCNC(=O)[C@@H]1OC(=O)OCC1(C)C` [Compound 485], under “50 uM”, the activation at 50 µM is at least 10%. Moreover, where the note is “concentration tested 50 uM”, the “% increase in Glucose Uptake” value is at least 10%. On to `COC(=O)C(CC(=O)O)SCCNC(=O)CCNC(=O)[C@@H]1OC(=O)OCC1(C)C` (stereo partly drawn) [Compound 498], for which the activation at 50 µM (50 uM (Example 971)) was at least 10%. As to `COC(=O)CC(SCCNC(=O)CCNC(=O)[C@@H]1OC(=O)OCC1(C)C)C(=O)OCC[N+](C)(C)C` (stereo partly drawn) [Compound 503], the activation at 50 µM (50 uM (Example 972)) is at least 20%. On to `COC(=O)CC1(C)OCC(C)(C)[C@H](C(=O)NCCC(=O)NCCSC(=O)CCC(=O)O)O1` (stereo partly drawn) [Compound 609], for which the activation at 10 µM (10 uM) is at least 10%. Moreover, the “% increase in Glucose Uptake” value (concentration tested 10 uM) is on record as at least 10%. As to `COC(=O)CCC(=O)SCCNC(=O)CCNC(=O)[C@@H]1OC(C)(C)OCC1(C)C` [Compound 852, methyl 4-oxo-4-[[2-(3-[[(4R)-2,2,5,5-tetramethyl-1,3-dioxan-4-yl]formamido]propanamido)ethyl]sulfanyl]butanoate], for the setting “50 uM”, the activation at 50 µM was at least 20%. Besides, for the setting “concentration tested 50 uM”, the “% increase in Glucose Uptake” value is on record as at least 20%.

Take `CC(=O)NCCCC(=O)SCCNC(=O)CCNC(=O)[C@@H]1OC(C)(C)OCC1(C)C` [Compound 853]: the “% increase in Glucose Uptake” value (10 uM (Example 973)) was at least 30%. Moreover, where the note is “10 uM”, the activation at 10 µM was at least 30%. On to `CCCCCCC(=O)SCCNC(=O)CCNC(=O)[C@@H]1OC(C)(C)OCC1(C)C` [Compound 855, N-[2-(heptanoylsulfanyl)ethyl]-3-[[(4R)-2,2,5,5-tetramethyl-1,3-dioxan-4-yl]formamido]propanamide], for which the activation at 50 µM (50 uM) was at least 30%. Besides, for the setting “concentration tested 50 uM”, the “% increase in Glucose Uptake” value is reported as at least 30%. As for `COC(=O)C(=O)SCCNC(=O)CCNC(=O)[C@@H]1OC(C)(C)OCC1(C)C` [Compound 856], the “% increase in Glucose Uptake” value (10 uM (Example 973)) is given as at least 30%. In addition, for the setting “10 uM”, the activation at 10 µM is at least 30%. The corresponding values for `COC(=O)/C=C/C(=O)SCCNC(=O)CCNC(=O)[C@@H]1OC(C)(C)OCC1(C)C` [Compound 858, methyl (2E)-4-oxo-4-[[2-(3-[[(4R)-2,2,5,5-tetramethyl-1,3-dioxan-4-yl]formamido]propanamido)ethyl]sulfanyl]but-2-enoate] are at least 30% and at least 30%. As for `CC(=O)CC(=O)SCCNC(=O)CCNC(=O)[C@@H]1OC(C)(C)OCC1(C)C` [Compound 860, N-[2-[(3-oxobutanoyl)sulfanyl]ethyl]-3-[[(4R)-2,2,5,5-tetramethyl-1,3-dioxan-4-yl]formamido]propanamide], the activation at 50 µM (50 uM) is at least 10%. For the same molecule, the “% increase in Glucose Uptake” value (concentration tested 50 uM) was at least 10%. The corresponding values for `CCC(=O)SCCNC(=O)CCNC(=O)[C@@H]1OC(C)(C)OCC1(C)C` [Compound 861, N-[2-(propanoylsulfanyl)ethyl]-3-[[(4R)-2,2,5,5-tetramethyl-1,3-dioxan-4-yl]formamido]propanamide] are at least 20% and at least 20%.
